Several values for one entry are separate records, joined by “and”; a condition that tells them apart may be missing. Equal values may be shown once.
Legend:
[1] = Liquid, Closed cell (Static) method
[2] = excess molar enthalpy (molar enthalpy of mixing); xn = mol fraction of the nth substance listed; settings: 303.15 K, 101.3 kPa, Liquid, Calvet calorimetry

COC(C)(C)C [2-methoxy-2-methylpropane]
[1]
Settings | vapor or sublimation pressure [kPa]
263.15 K | 6.245
263.53 K | 6.4
273.15 K | 10.67
273.34 K | 10.8
283.15 K | 17.41
283.27 K | 17.6
293.15 K | 27.25
293.25 K | 27.4
303.15 K | 41.16
303.22 K | 41.2
313.15 K | 60.22
313.24 K | 60.3
323.15 K | 85.65
323.21 K | 85.8
333.15 K | 118.78
333.19 K | 119.2

CCCCOC [butyl methyl ether]
[1]
Settings | vapor or sublimation pressure
262.99 K | 3.2 kPa
263.15 K | 3.194 kPa
273.04 K | 5.7 kPa
273.15 K | 5.704 kPa
283.07 K | 9.6 kPa
283.15 K | 9.688 kPa
293.1 K | 15.6 kPa
293.15 K | 15.74 kPa
303.12 K | 24.4 kPa
303.15 K | 24.61 kPa
313.15 K | 37.17 kPa
313.16 K | 36.8 kPa and 36.9 kPa
323.15 K | 54.46 kPa
323.2 K | 54 kPa
333.15 K | 77.64 kPa
333.25 K | 74.1 kPa

CCCCOC [butyl methyl ether] + C=CCCCC
[2]
Settings | excess molar enthalpy [kJ/mol]
x2 = 0.0997 | 0.023
x2 = 0.1966 | 0.0459
x2 = 0.2897 | 0.0635
x2 = 0.3935 | 0.0809
x2 = 0.4933 | 0.0896
x2 = 0.5922 | 0.0907
x2 = 0.694 | 0.0857
x2 = 0.7912 | 0.0708
x2 = 0.8863 | 0.0441

C=CCCCC [hex-1-ene]
[1]
Settings | vapor or sublimation pressure [kPa]
263.15 K | 4.46
263.45 K | 4.5
273.15 K | 7.716
273.32 K | 7.7
283.15 K | 12.71
283.24 K | 12.8
293.15 K | 20.08
293.22 K | 20.1
303.15 K | 30.54
303.22 K | 30.6
313.15 K | 44.96
313.2 K | 45
323.15 K | 64.28
323.19 K | 64.4
333.15 K | 89.55
333.23 K | 89.7

C=CCCCC [hex-1-ene] + COC(C)(C)C
[2]
Settings | excess molar enthalpy [kJ/mol]
x1 = 0.1491 | 0.0873
x1 = 0.2162 | 0.113
x1 = 0.3039 | 0.138
x1 = 0.4052 | 0.155
x1 = 0.4892 | 0.161
x1 = 0.6174 | 0.158
x1 = 0.7128 | 0.144
x1 = 0.788 | 0.123
x1 = 0.8837 | 0.0828

Source: the NIST ThermoML archive (doi:10.1016/j.jct.2012.03.016)
